Assays:
TNF = experiment: Pre-screen for TNF inhibition activity of synthesized molecules (Table 1); assay type: cell-based
[1] = Cell viability in pre-screen (Table 1); assay type: cell-based
TLR2 = target: T1, TLR2 (Homo sapiens, UniProt O60603); experiment: TLR2 ligand induced TNF-α secretion in THP-1 cells and PBMCs (ELISA); assay type: cell-based; details: TLR2 ligand 75 ng/ml, 1 hr pre-treatment, 24 hrs
T1 construct: endogenous in cells; host or cells: THP-1 monocytes and PBMCs
Protocol: (§1) The present invention has checked the effect of various TLR ligands on THP-1 monocytes, PBMCs and their ability to activate and release TNF-α. For this purpose about 9 TLR ligands were used. These ligands were obtained from Apotech Cat; APO-54N-018-K100 and assayed for TNF-α release in culture supernatants.
(§2) THP-1 and PBMCs (2×10^5 cells/well) were plated in 96-well plate. The cells were pretreated with RSCL-0409 in DMSO 1 hr prior to TLR ligand treatment. Following 1 hr pre-treatment, the cells were treated with TLR ligands [TLR2, TLR5 and TLR6-75 ng/ml each, TLR3-75 μg/ml, TLR4-750 ng/ml, TLR7, TLR8 and TLR9-7.5 μg/ml) for 24 hrs. The culture supernatant were collected after the stipulated time and assayed for TNF-α release using a Duoset Enzyme-Linked ImmunoSorbent Assay (ELISA) detection Kit (R&D systems, MN 55413, USA; Cat: DY-210 E). Simultaneously supernatants were collected from cells treated with ligands without pre-treatment with RSCL-0409 and only RSCL-0409 without ligand treatment.

TLR4 = target: T2, TLR4 (Homo sapiens, UniProt O00206); experiment: TLR4 ligand induced TNF-α secretion in THP-1 cells and PBMCs (ELISA); assay type: cell-based; details: TLR4 ligand 750 ng/ml, 1 hr pre-treatment, 24 hrs
T2 construct: endogenous in cells; host or cells: THP-1 monocytes and PBMCs
T2 sequence (O00206 24-839): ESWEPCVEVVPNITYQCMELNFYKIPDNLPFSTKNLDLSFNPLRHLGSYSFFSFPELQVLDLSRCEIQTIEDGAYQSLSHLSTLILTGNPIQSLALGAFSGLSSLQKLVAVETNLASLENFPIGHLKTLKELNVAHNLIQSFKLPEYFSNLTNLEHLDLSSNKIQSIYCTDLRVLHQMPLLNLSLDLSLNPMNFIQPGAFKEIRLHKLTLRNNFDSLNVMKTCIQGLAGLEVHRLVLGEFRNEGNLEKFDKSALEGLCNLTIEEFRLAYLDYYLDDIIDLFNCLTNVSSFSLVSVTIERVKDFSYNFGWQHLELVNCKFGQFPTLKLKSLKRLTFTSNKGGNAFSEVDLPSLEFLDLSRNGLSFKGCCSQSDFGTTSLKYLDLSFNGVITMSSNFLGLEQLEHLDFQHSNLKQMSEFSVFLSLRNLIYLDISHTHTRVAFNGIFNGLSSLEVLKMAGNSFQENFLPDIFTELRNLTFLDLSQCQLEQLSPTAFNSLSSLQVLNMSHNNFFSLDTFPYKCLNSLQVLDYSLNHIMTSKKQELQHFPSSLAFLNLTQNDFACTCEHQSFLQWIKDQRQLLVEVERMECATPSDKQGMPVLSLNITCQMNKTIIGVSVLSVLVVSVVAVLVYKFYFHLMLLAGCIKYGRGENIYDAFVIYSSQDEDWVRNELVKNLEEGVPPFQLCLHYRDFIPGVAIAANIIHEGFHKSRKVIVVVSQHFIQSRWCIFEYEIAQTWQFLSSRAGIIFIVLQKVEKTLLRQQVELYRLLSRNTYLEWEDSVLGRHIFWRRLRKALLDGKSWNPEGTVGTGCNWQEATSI
T2 sequence (Q9Y6Y9 17-160 partner limits assumed): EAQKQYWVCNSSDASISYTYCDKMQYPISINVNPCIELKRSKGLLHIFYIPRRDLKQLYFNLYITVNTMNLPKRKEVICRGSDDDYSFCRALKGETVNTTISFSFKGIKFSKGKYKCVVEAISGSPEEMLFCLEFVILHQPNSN
Protocol: as §1, §2

TNF-α = experiment: LPS induced TNF-α secretion in THP-1 monocytes, dose dependence (ELISA); assay type: cell-based, human; details: THP-1, LPS 250 ng/ml, 100, 50, 10 and 1 μM, 24 hr
Protocol: To confirm whether the inhibitory effect of RSCL-0409 is dose-dependent, the present invention has studied the ability of RSCL-0409 to inhibit TNF-α secretion from LPS (250 ng/ml) induced THP-1 monocytes (FIG. 2a).
THP-1, 2×10^5 cells/well was plated in 96-well plate. The cells were pretreated with RSCL-0409 at various concentrations (100 μM, 50 μM, 10 μM and 1 μM) 1 hr prior to LPS stimulation. As a control group, cells were treated with LPS alone and cells treated with RSCL-0409 alone were used. TNF-α secretion was estimated in the culture supernatants following 24 hr LPS stimulation using Duoset ELISA detection Kit (R&D systems, MN, USA). *P<0.05, ***P<0.001 values are comparisons for LPS treated vs. RSCL-0409 treated, NS indicates not significant.

THP-1 cells = experiment: MTT toxicity assay in THP-1 cells; assay type: cell-based, human
Excerpt: The toxicity of RSCL-0409 (FIG. 2b) was also by treating cells with RSCL-0409 by MTT assay. […] The viability of the cells (analyzed in tandem by MTT) was not affected by RSCL-0409 indicating its non-toxic nature.

TNF-α mRNA = TNF-α mRNA expression in LPS stimulated THP-1 cells (real-time PCR); assay type: cell-based, human; details: THP-1, LPS 250 ng/ml 1 hr
Protocol: (§3) To determine whether the suppressive effect of RSCL-0409 on the cytokine production occurs at mRNA expression level, quantitative real-time PCR was used to examine TNF-α and IL-6 mRNA expression in THP-1 cells stimulated with LPS. THP-1 cells (3×10^6 cells/well) were stimulated with 250 ng/ml LPS in the presence or absence of RSCL-0409 at indicated concentrations for the 1 hr. Total RNA was isolated from these cells and cDNA was synthesized. LPS treated cells acted as positive control. All quantitative real-time PCR (TaqMan™) primers and probes were obtained from Applied Biosystems (ABI), Weiterstadt, Germany. For detection of TNF-α, pre-developed assay reagents (Universal master mix as obtained from Applied Biosystems included all reagents including Taq-polymerase apart from specific primers and probes) were used. The PCR was performed utilizing 1 μl cDNA per reaction in triplicates of 25 μl volume on an ABI 7500 Realtime PCR machine using a 2-step PCR protocol.
(§4) Quantization of mRNA was performed using the comparative threshold cycle method and analysed using standard software and expressed in fold change. The fold change of TNF-α (FIG. 5a) and IL-6 (FIG. 5b) mRNA in treated cells over control was obtained after correction for the amount of β-actin. […] The expression levels of both TNF and IL-6 decreased following 1 hr pretreatment with RSCL-0409 in the presence of LPS. […]

IL-6 mRNA = IL-6 mRNA expression in LPS stimulated THP-1 cells (real-time PCR); assay type: cell-based, human; details: THP-1, LPS 250 ng/ml 1 hr
Protocol: as §3, §4

[2] = test system: ICAM-1, COX-2, IL-1β and IL-8 genes; experiment: mRNA expression of pro-inflammatory genes in THP-1 cells; assay type: cell-based, human; details: THP-1, LPS 250 ng/ml
Protocol: The inhibitory effect of the present invention, RSCL-0409 on mRNA was checked on pro-inflammatory genes like intercellular adhesion molecule1 (ICAM-1), cyclooxygenase 2 (COX-2), IL-1β and IL-8. THP-1 cells (3×10^6 cells) were seeded in a 6-well dish. The cells were treated with RSCL-0409 ([…]) for 1 hr followed by incubation with or without 250 ng/ml of LPS. After two washes with ice-cold PBS, the cells were harvested and total cellular RNA was isolated using TRIZOL Reagent (Invitrogen) according to the manufacturer's instructions. cDNA synthesis was done using high capacity cDNA reverse transcription kit (ABI systems). Amplification of ICAM-1, COX-2, IL-1β and IL-8 genes from the cDNA was carried out using the respective gene specific primers.

TIRAP and MyD88 = experiment: Protein levels of TIRAP and MyD88 in LPS stimulated THP-1 cells (immunoblot); assay type: cell-based, human; details: THP-1, LPS 250 ng/ml, 1 hr pre-treatment
Protocol: Further confirmation was obtained at the protein level. Serum-starved THP-1 cells were stimulated with LPS (250 ng/ml) for the indicated time in the presence and absence of RSCL-0409. RSCL-0409 treatment was 1 hr prior to LPS treatment. Immunoblotting of total protein was carried out as before to determine protein levels of TIRAP and MyD88.

T1 sequence (O60603 21-784): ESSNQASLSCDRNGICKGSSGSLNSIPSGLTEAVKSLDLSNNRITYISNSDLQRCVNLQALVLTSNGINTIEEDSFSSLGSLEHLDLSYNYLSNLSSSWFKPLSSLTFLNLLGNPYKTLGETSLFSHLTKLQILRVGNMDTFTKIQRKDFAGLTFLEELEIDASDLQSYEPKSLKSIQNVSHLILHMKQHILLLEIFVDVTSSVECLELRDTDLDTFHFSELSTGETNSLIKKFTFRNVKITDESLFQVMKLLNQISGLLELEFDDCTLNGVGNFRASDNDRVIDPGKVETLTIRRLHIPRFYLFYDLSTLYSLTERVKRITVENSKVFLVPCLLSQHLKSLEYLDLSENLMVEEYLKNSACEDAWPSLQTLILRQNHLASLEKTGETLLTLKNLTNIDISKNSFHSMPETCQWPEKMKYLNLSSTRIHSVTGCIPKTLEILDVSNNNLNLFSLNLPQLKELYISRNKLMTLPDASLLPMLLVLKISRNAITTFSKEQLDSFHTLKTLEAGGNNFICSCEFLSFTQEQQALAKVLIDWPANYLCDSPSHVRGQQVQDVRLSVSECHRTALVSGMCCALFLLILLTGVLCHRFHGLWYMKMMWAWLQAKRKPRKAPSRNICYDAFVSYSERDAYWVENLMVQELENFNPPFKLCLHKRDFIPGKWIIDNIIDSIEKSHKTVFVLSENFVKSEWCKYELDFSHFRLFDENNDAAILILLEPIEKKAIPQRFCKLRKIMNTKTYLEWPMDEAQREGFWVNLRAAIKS

inhibition of TNF-α secretion (TLR2; PBMC): ~46%
inhibition of TNF-α secretion (TLR2; THP-1 cells): ~54%
inhibition of TNF-α secretion (TLR4; PBMCs): ~34%
inhibition of TNF-α secretion (TLR4; THP-1 cells): ~100%
SMILES: COc1ccc(OC2OC3COC(c4ccccc4)OC3C(OC3OC(COC(=O)CCC(C)=O)C(OC(=O)CCl)C(OC(C)=O)C3OC(C)=O)C2NC(=O)C(Cl)(Cl)Cl)cc1 [RSCL-0409, p-Methoxy phenyl-O-(2,3-di-O-acetyl-4-O-chloroacetyl-6-O-levulinoyl-β-D-glucopyranosyl)-(1-3)-2-deoxy-2-trichloroacetamido-4,6-O-benzylidene-α-D-glucopyranoside]
% TNF Inhibition (TNF; 1 uM): 0%
% TNF Inhibition (TNF; 10 uM): 32%
% TNF Inhibition (TNF; 50 uM): 81%
% TNF Inhibition (TNF; 100 uM): 91%
% Viability ([1]; 1 uM): 108%
% Viability ([1]; 10 uM): 112%
% Viability ([1]; 50 uM): 114%
% Viability ([1]; 100 uM): 113%
LPS induced TNF-α secretion (TNF-α): inhibited by RSCL-0409 in a concentration dependent manner
viability of the cells (MTT) (THP-1 cells): not affected
TNF-α mRNA expression (TNF-α mRNA): down regulated TNF-α to almost control levels
IL-6 mRNA expression (IL-6 mRNA): The same was observed with IL-6 also in a concentration dependent manner
mRNA expression of ICAM-1, COX-2, IL-1β and IL-8 [2]: inhibited mRNA expression levels of the tested genes
protein levels of TIRAP and MyD88 (TIRAP and MyD88): Down regulation of TIRAP and also MyD88 at protein levels

Reference: patent publication US20090215710A1, “CARBOHYDRATE BASED TOLL-LIKE RECEPTOR (TLR) ANTAGONISTS” (RELIANCE LIFE SCIENCES PVT. LTD., priority 2007, published 2009)
